According to PubChem BioAssay AID248 (DTP/NCI, 2004):
Inconclusive results and toxic doses are left out. Cut-off read from the data, not from the text of the source: active = T/C of 150% or more; inactive = T/C below 125%.

System: L1210 leukemia ip in BDF1 mice, survival T/C
Test: NCI In Vivo Anticancer Drug Screen. Data for tumor model L1210 Leukemia (intraperitoneal) in B6D2F1 (BDF1) mice
Details: endpoint: mean survival time, higher = longer survival
Summary of the method: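 Ratio derived from survival: compound-dosed mice over vehicle-dosed mice, all bearing a transplantable tumor.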

[1] = dose: 50.0 mg/kg/injection, schedule: Q01DX001 (ip), vehicle: carboxymethylcellulose (CMC)
[2] = dose: 100.0 mg/kg/injection, schedule: Q01DX001 (ip), vehicle: carboxymethylcellulose (CMC)
[3] = dose: 200.0 mg/kg/injection, schedule: Q01DX001 (ip), vehicle: carboxymethylcellulose (CMC)
[4] = dose: 400.0 mg/kg/injection, schedule: Q01DX001 (ip), vehicle: carboxymethylcellulose (CMC)
[5] = dose: 100.0 mg/kg/injection, schedule: Q01DX001 (ip), vehicle: saline
[6] = dose: 200.0 mg/kg/injection, schedule: Q01DX001 (ip), vehicle: saline
[7] = dose: 400.0 mg/kg/injection, schedule: Q01DX001 (ip), vehicle: saline
[8] = dose: 50.0 mg/kg/injection, schedule: Q04DX003 (ip), vehicle: saline with Tween-80
[9] = dose: 100.0 mg/kg/injection, schedule: Q04DX003 (ip), vehicle: saline with Tween-80
[10] = dose: 100.0 mg/kg/injection, schedule: Q01DX009 (ip), vehicle: Klucel (hydroxypropylcellulose) (HPC)
[11] = dose: 100.0 mg/kg/injection, schedule: Q04DX003 (ip), vehicle: Klucel (hydroxypropylcellulose) (HPC)
[12] = dose: 200.0 mg/kg/injection, schedule: Q01DX009 (ip), vehicle: Klucel (hydroxypropylcellulose) (HPC)
[13] = dose: 200.0 mg/kg/injection, schedule: Q04DX003 (ip), vehicle: Klucel (hydroxypropylcellulose) (HPC)
[14] = dose: 400.0 mg/kg/injection, schedule: Q01DX009 (ip), vehicle: Klucel (hydroxypropylcellulose) (HPC)
[15] = dose: 400.0 mg/kg/injection, schedule: Q04DX003 (ip), vehicle: Klucel (hydroxypropylcellulose) (HPC)

Measured: T/C

CC(=O)C1=CC2(OC3CCC(O)(C(=O)CO)C(C)O3)C(=O)c3c(cc4cccc(O)c4c3O)CC2C(O)C1O (stereo unspecified)
inactive: dose: 3.12 mg/kg/injection, schedule: Q01DX001 (ip), vehicle: carboxymethylcellulose (CMC) 114 % of control | dose: 6.25 mg/kg/injection, schedule: Q01DX001 (ip), vehicle: carboxymethylcellulose (CMC) 100 % of control | dose: 12.5 mg/kg/injection, schedule: Q01DX001 (ip), vehicle: carboxymethylcellulose (CMC) 104 % of control | dose: 25.0 mg/kg/injection, schedule: Q01DX001 (ip), vehicle: carboxymethylcellulose (CMC) 106 % of control | [1] 115 % of control | dose: 50.0 mg/kg/injection, schedule: Q01DX015 (ip), vehicle: carboxymethylcellulose (CMC) 102 % of control | [2] 111 % of control | dose: 100.0 mg/kg/injection, schedule: Q01DX015 (ip), vehicle: carboxymethylcellulose (CMC) 102 % of control | [3] 100 % of control | dose: 200.0 mg/kg/injection, schedule: Q01DX015 (ip), vehicle: carboxymethylcellulose (CMC) 93 % of control | [4] 97 % of control | dose: 400.0 mg/kg/injection, schedule: Q01DX015 (ip), vehicle: carboxymethylcellulose (CMC) 93 % of control

O=C1CCCCC1Nc1ccc([N+](=O)[O-])cc1 (stereo unspecified)
inactive: [5] 87 % of control | [6] 93 % of control | [7] 95 % of control

O=S1(=O)C(c2ccccc2)C(N2CCCCC2)C1C1CC2c3ccccc3C1c1ccccc12 (stereo unspecified)
inactive: dose: 75.0 mg/kg/injection, schedule: Q01DX001 (ip), vehicle: carboxymethylcellulose (CMC) 91 % of control | dose: 150.0 mg/kg/injection, schedule: Q01DX001 (ip), vehicle: carboxymethylcellulose (CMC) 91 % of control | dose: 300.0 mg/kg/injection, schedule: Q01DX001 (ip), vehicle: carboxymethylcellulose (CMC) 86 % of control

Brc1ccc(Br)c(-c2nnc(-c3cccc4ccccc34)o2)c1
inactive: [5] 86 % of control

c1ccc2c(C3CSC3)nncc2c1
inactive: [5] 97 % of control | [6] 97 % of control | [7] 94 % of control

CCCCCCCCP(=O)(O)CCCCCCCC
inactive: dose: 25.0 mg/kg/injection, schedule: Q04DX003 (ip), vehicle: saline with Tween-80 96 % of control | [8] 87 % of control | [9] 91 % of control

O=C(NCCCCCCNC(=O)c1ccccc1)c1ccccc1
inactive: [1] 100 % of control | [2] 103 % of control | [3] 97 % of control | [4] 97 % of control

Cc1n(Cc2ccccc2)c2c([n+]1C)C(=O)c1ccccc1C2=O
inactive: dose: 0.5 mg/kg/injection, schedule: Q01DX001 (ip), vehicle: saline 102 % of control | dose: 1.0 mg/kg/injection, schedule: Q01DX001 (ip), vehicle: saline 102 % of control | dose: 1.0 mg/kg/injection, schedule: Q04DX003 (ip), vehicle: Klucel (hydroxypropylcellulose) (HPC) 100 % of control | dose: 2.0 mg/kg/injection, schedule: Q01DX001 (ip), vehicle: saline 106 % of control | dose: 2.0 mg/kg/injection, schedule: Q04DX003 (ip), vehicle: Klucel (hydroxypropylcellulose) (HPC) 91 % of control | dose: 4.0 mg/kg/injection, schedule: Q01DX001 (ip), vehicle: saline 108 % of control | dose: 4.0 mg/kg/injection, schedule: Q04DX003 (ip), vehicle: Klucel (hydroxypropylcellulose) (HPC) 96 % of control | dose: 125.0 micrograms/kg/injection, schedule: Q01DX009 (ip), vehicle: Klucel (hydroxypropylcellulose) (HPC) 97 % of control | dose: 250.0 micrograms/kg/injection, schedule: Q01DX009 (ip), vehicle: Klucel (hydroxypropylcellulose) (HPC) 97 % of control | dose: 500.0 micrograms/kg/injection, schedule: Q01DX009 (ip), vehicle: Klucel (hydroxypropylcellulose) (HPC) 90 % of control | dose: 1000.0 micrograms/kg/injection, schedule: Q01DX009 (ip), vehicle: Klucel (hydroxypropylcellulose) (HPC) 101 % of control | dose: 2000.0 micrograms/kg/injection, schedule: Q01DX009 (ip), vehicle: Klucel (hydroxypropylcellulose) (HPC) 95 % of control

CC(C)CCS(=O)(=O)OCCCCOS(=O)(=O)CCC(C)C
inactive: [1] 109 % of control | [2] 104 % of control | [10] 106 % of control | [11] 105 % of control | [3] 101 % of control | [12] 102 % of control | [13] 105 % of control | [4] 103 % of control | [14] 109 % of control | [15] 106 % of control

O=C1CCC2(CCC(=O)O2)O1
inactive: dose: 50.0 mg/kg/injection, schedule: Q01DX009 (ip), vehicle: saline 100 % of control | dose: 100.0 mg/kg/injection, schedule: Q01DX009 (ip), vehicle: saline 100 % of control | dose: 200.0 mg/kg/injection, schedule: Q01DX009 (ip), vehicle: saline 92 % of control

O=C(OCC(Cl)(Cl)Cl)c1ccc(Cl)cc1
inactive: dose: 100.0 mg/kg/injection, schedule: Q04DX002 (ip), vehicle: other 97 % of control | dose: 200.0 mg/kg/injection, schedule: Q04DX002 (ip), vehicle: other 97 % of control | dose: 400.0 mg/kg/injection, schedule: Q04DX002 (ip), vehicle: other 97 % of control

CN(C)c1ncccc1O
inactive: [5] 95 % of control | [6] 101 % of control | [7] 106 % of control

c1ccc(C[As+](c2ccccc2)(c2ccccc2)c2ccccc2)cc1
inactive: dose: 5.0 mg/kg/injection, schedule: Q01DX001 (ip), vehicle: saline 101 % of control | dose: 6.25 mg/kg/injection, schedule: Q04DX002 (ip), vehicle: saline with Tween-80 97 % of control | dose: 10.0 mg/kg/injection, schedule: Q01DX001 (ip), vehicle: saline 90 % of control | dose: 12.5 mg/kg/injection, schedule: Q04DX002 (ip), vehicle: saline with Tween-80 86 % of control | dose: 20.0 mg/kg/injection, schedule: Q01DX001 (ip), vehicle: saline 93 % of control | dose: 25.0 mg/kg/injection, schedule: Q04DX002 (ip), vehicle: saline with Tween-80 101 % of control | dose: 40.0 mg/kg/injection, schedule: Q01DX001 (ip), vehicle: saline 109 % of control

Cc1ccc(NC(=S)N2CCC(CCCC3CCN(C(=S)Nc4ccc(C)c(C)c4)CC3)CC2)cc1C
inactive: [10] 93 % of control | [11] 88 % of control | [12] 90 % of control | [13] 98 % of control | [14] 90 % of control | [15] 92 % of control

O=[N+]([O-])c1ccc(NC2CCCCC2)c2c1no[n+]2[O-]
inactive: [8] 100 % of control | [9] 100 % of control | dose: 200.0 mg/kg/injection, schedule: Q04DX003 (ip), vehicle: saline with Tween-80 118 % of control
